Where “and” joins values, the source holds several entries; their conditions need not be identical. Identical values can stand only once. Numbers after ± are expanded uncertainties.
Details: Liquid, Buoyancy - hydrostatic balance with magnetic suspension - one sinker

In the case of `Cc1ccccc1` [toluene], the mass density (293.14 K, 580 kPa) is reported as 867.3 ± 0.12 kg/m3, the mass density (293.14 K, 2080 kPa) is reported as 868.44 ± 0.12 kg/m3 and the mass density (293.14 K, 2100 kPa) is reported as 868.49 ± 0.12 kg/m3. It also gave a mass density (293.14 K, 4080 kPa) of 869.92 ± 0.12 kg/m3, a mass density (293.14 K, 6080 kPa) of 871.41 ± 0.12 kg/m3 and a mass density (293.14 K, 8080 kPa) of 872.84 ± 0.12 kg/m3. It also gave a mass density (293.14 K, 10080 kPa) of 874.27 ± 0.12 kg/m3, a mass density (293.14 K, 10110 kPa) of 874.35 ± 0.12 kg/m3 and a mass density (293.14 K, 15090 kPa) of 877.74 ± 0.12 kg/m3. The mass density (293.14 K, 15110 kPa) was 877.83 ± 0.12 kg/m3, the mass density (293.14 K, 20090 kPa) was 881.09 ± 0.12 kg/m3 and the mass density (293.14 K, 20110 kPa) was 881.18 ± 0.12 kg/m3. It also gave a mass density (293.14 K, 25090 kPa) of 884.33 ± 0.12 kg/m3, a mass density (293.14 K, 25120 kPa) of 884.42 ± 0.12 kg/m3 and a mass density (293.14 K, 30090 kPa) of 887.47 ± 0.12 kg/m3. The mass density (293.14 K, 30120 kPa) was 887.56 ± 0.12 kg/m3, the mass density (293.15 K, 2080 kPa) was 868.48 ± 0.12 kg/m3 and the mass density (293.15 K, 4080 kPa) was 869.98 ± 0.12 kg/m3. For the same molecule, the mass density (293.15 K, 6080 kPa) was 871.45 ± 0.12 kg/m3, the mass density (293.15 K, 8080 kPa) was 872.9 ± 0.12 kg/m3 and the mass density (293.15 K, 10080 kPa) was 874.33 ± 0.12 kg/m3. For the same molecule, the mass density (293.15 K, 15080 kPa) was 877.8 ± 0.12 kg/m3, the mass density (293.15 K, 20080 kPa) was 881.15 ± 0.12 kg/m3 and the mass density (293.15 K, 25080 kPa) was 884.39 ± 0.12 kg/m3. The mass density (313.14 K, 590 kPa) was 848.73 ± 0.12 kg/m3, the mass density (313.14 K, 2090 kPa) was 850.02 ± 0.12 kg/m3 and the mass density (313.14 K, 4090 kPa) was 851.7 ± 0.12 kg/m3. For the same molecule, the mass density (313.14 K, 6090 kPa) was 853.35 ± 0.12 kg/m3, the mass density (313.14 K, 8090 kPa) was 854.98 ± 0.12 kg/m3 and the mass density (313.14 K, 10090 kPa) was 856.57 ± 0.12 kg/m3. The mass density (313.14 K, 15090 kPa) was 860.44 ± 0.12 kg/m3, the mass density (313.14 K, 20090 kPa) was 864.16 ± 0.12 kg/m3 and the mass density (313.14 K, 25090 kPa) was 867.74 ± 0.12 kg/m3. It also gave a mass density (333.14 K, 590 kPa) of 829.86 ± 0.12 kg/m3, a mass density (333.14 K, 2090 kPa) of 831.32 ± 0.12 kg/m3 and a mass density (333.14 K, 4090 kPa) of 833.23 ± 0.12 kg/m3. For the same molecule, the mass density (333.14 K, 6090 kPa) was 835.1 ± 0.12 kg/m3, the mass density (333.14 K, 8090 kPa) was 836.93 ± 0.12 kg/m3 and the mass density (333.14 K, 10090 kPa) was 838.73 ± 0.12 kg/m3. The mass density (333.14 K, 15090 kPa) was 843.06 ± 0.12 kg/m3, the mass density (333.14 K, 20090 kPa) was 847.2 ± 0.12 kg/m3 and the mass density (333.14 K, 25090 kPa) was 851.15 ± 0.12 kg/m3. The mass density (333.14 K, 30090 kPa) was 854.96 ± 0.12 kg/m3, the mass density (353.14 K, 2090 kPa) was 812.26 ± 0.11 kg/m3 and the mass density (353.14 K, 4090 kPa) was 814.44 ± 0.11 kg/m3. For the same molecule, the mass density (353.14 K, 6090 kPa) was 816.57 ± 0.11 kg/m3, the mass density (353.14 K, 8090 kPa) was 818.63 ± 0.11 kg/m3 and the mass density (353.14 K, 10090 kPa) was 820.66 ± 0.11 kg/m3. The mass density (353.14 K, 15090 kPa) was 825.54 ± 0.11 kg/m3, the mass density (353.14 K, 20090 kPa) was 830.16 ± 0.12 kg/m3 and the mass density (353.14 K, 25090 kPa) was 834.54 ± 0.12 kg/m3. For the same molecule, the mass density (353.14 K, 30090 kPa) was 838.72 ± 0.12 kg/m3, the mass density (373.15 K, 590 kPa) was 790.76 ± 0.11 kg/m3 and the mass density (373.15 K, 2090 kPa) was 792.7 ± 0.11 kg/m3 and 792.76 ± 0.11 kg/m3. For the same molecule, the mass density (373.15 K, 4090 kPa) was 795.21 ± 0.11 kg/m3 and 795.27 ± 0.11 kg/m3, the mass density (373.15 K, 6090 kPa) was 797.64 ± 0.11 kg/m3 and 797.7 ± 0.11 kg/m3 and the mass density (373.15 K, 8090 kPa) was 800 ± 0.11 kg/m3 and 800.07 ± 0.11 kg/m3. For the same molecule, the mass density (373.15 K, 10090 kPa) was 802.3 ± 0.11 kg/m3 and 802.37 ± 0.11 kg/m3, the mass density (373.15 K, 15080 kPa) was 807.86 ± 0.11 kg/m3 and the mass density (373.15 K, 15090 kPa) was 807.78 ± 0.11 kg/m3. For the same molecule, the mass density (373.15 K, 20080 kPa) was 813.03 ± 0.11 kg/m3, the mass density (373.15 K, 25080 kPa) was 817.91 ± 0.11 kg/m3 and the mass density (373.15 K, 30080 kPa) was 822.54 ± 0.11 kg/m3. It also gave a mass density (373.49 K, 2100 kPa) of 792.38 ± 0.11 kg/m3, a mass density (373.49 K, 10110 kPa) of 802.04 ± 0.11 kg/m3 and a mass density (373.49 K, 15110 kPa) of 807.56 ± 0.11 kg/m3. For the same molecule, the mass density (373.49 K, 20120 kPa) was 812.74 ± 0.11 kg/m3, the mass density (373.49 K, 25120 kPa) was 817.63 ± 0.11 kg/m3 and the mass density (373.49 K, 30120 kPa) was 822.28 ± 0.11 kg/m3.

From the NIST ThermoML archive (doi:10.1021/je900105g)
